ChEMBL document CHEMBL1156013, “Pharmacophore-guided lead optimization: the rational design of a non-zinc coordinating, sub-micromolar inhibitor of the botulinum neurotoxin serotype a metalloprotease” (Bioorg Med Chem Lett, 2009)

Tests used:
[1] = molecular target: Botulinum neurotoxin type A (Clostridium botulinum, UniProt P0DPI0); test: Inhibition of Clostridium botulinum neurotoxin A light chain by HPLC-based assay
[2] = molecular target: Botulinum neurotoxin type A (Clostridium botulinum) (UniProt P0DPI0); test: Inhibition of Clostridium botulinum neurotoxin A light chain at 20 uM by HPLC-based assay
Botulinum neurotoxin type A (Clostridium botulinum), sequence (P0DPI0 2-448 limits assumed): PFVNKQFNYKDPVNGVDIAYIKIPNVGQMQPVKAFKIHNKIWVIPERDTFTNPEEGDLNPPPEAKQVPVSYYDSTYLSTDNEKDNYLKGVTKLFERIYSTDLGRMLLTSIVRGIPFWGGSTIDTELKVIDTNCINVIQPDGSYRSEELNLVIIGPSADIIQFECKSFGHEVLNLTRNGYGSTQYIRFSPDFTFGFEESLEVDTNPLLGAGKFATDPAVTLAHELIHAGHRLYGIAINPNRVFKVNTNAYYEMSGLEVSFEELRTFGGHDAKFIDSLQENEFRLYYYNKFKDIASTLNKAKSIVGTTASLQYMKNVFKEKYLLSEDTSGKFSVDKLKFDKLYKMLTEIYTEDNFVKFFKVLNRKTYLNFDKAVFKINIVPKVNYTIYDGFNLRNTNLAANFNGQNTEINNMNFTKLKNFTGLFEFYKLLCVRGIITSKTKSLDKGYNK

Botulinum neurotoxin type A, sequence (P0DPI0 2-448 limits assumed): as above

Row | Compound | IC50 [1] | Ki [1] | inhibition [2]
1 | N=C(N)c1ccc(Oc2ccc(-c3cc4ccc(C(=N)N)cc4[nH]3)cc2)cc1 | 3000 nM | 10000 nM | –
2 | Clc1ccc2c(NCCCNCCCNc3ccnc4cc(Cl)ccc34)ccnc2c1 | – | – | 60%
3 | N=C(N)c1ccc(Oc2ccc(-c3cc4ccc(/C(N)=N/CCCNc5ccnc6cc(Cl)ccc56)cc4[nH]3)cc2)cc1 | – | 600 nM | 95%
4 | N=C(N)c1ccc2cc(-c3ccc(Oc4ccc(/C(N)=N/CCCNc5ccnc6cc(Cl)ccc56)cc4)cc3)[nH]c2c1 | – | 600 nM | 95%
